Reference: patent US20140193824A1, “High-Resolution Clonal Typing of Escherichia coli” (priority 2013, published 2014)
Read-outs that look alike come from different tables or passages of the source.

What was measured:
[1] = test system: clinical E. coli isolates; assay: Clonotype-guided (CH, fumC-fimH) prediction of antimicrobial resistance, primary collection, >=80% clonotype susceptibility cutoff; set-up: species or system Escherichia coli; settings: for Resistance among allowed isolates (actual prevalence of resistance): allowed population; for Resistance among rejected isolates: rejected population
Procedure: (§1) Antimicrobial susceptibility profiles were determined using disk diffusion testing. The interpretive criteria were those specified by the Clinical and Laboratory Standards Institute (CLSI).
Internal (<500 bp) regions of fumC and fimH were amplified by PCR, and the DNA sequences were determined by Sanger sequencing. Each unique combination of fumC and fimH alleles defined a CH clonotype. The diversity of the clonotype distribution was evaluated using the Simpson's modified alpha-diversity index.
(§2) Each isolate in the primary collection was classified as resistant or susceptible to each of the 11 antimicrobials based on the prevalence of susceptibility to the particular antimicrobial in the rest of isolates belonging to the same clonotype (i.e., for each isolate classification, the susceptibility of the corresponding clonotype was recalculated by excluding the profile of the isolate to be classified). Thus, clonotype-guided antibiotic selection was evaluated only for isolates from clonotypes comprising greater than or equal to 2 isolates.

[2] = test system: clinical E. coli isolates; assay: Antimicrobial susceptibility by disk diffusion testing (CLSI criteria) of clinical E. coli isolates; format: cell-based, Escherichia coli; settings: for Observed Resistance rate: rate of resistant isolates among 1,413 nonsingleton isolates of the primary collection
Procedure: (Veterans Affairs Medical Center).
Antimicrobial susceptibility profiles were determined using disk diffusion testing.
The prevalence of susceptibility to individual agents was calculated for the total primary collection, for individual participating laboratories, and for individual CH clonotypes. Odds ratios (ORs) were calculated for each subgroup (i.e., laboratory or clonotype) relative to the rest of the population. If the OR was >2 or <0.5, its statistical significance was evaluated using Fisher's exact test.

[3] = test system: clinical E. coli isolates
Description: The primary set of 1,518 recent clinical E. coli isolates consisted of consecutive single-patient human extraintestinal isolates recovered between October 2010 and June 2011 at five clinical microbiology laboratories serving distinct patient populations in Seattle, Wash. (Group Health Cooperative, Harborview Medical Center, Seattle Children's Hospital, and the University of Washington Medical Center), and Minneapolis, Minn. (Veterans Affairs Medical Center). […] Another set of E. coli isolates was obtained from the University Hospital in Munster, Germany, and consisted of 161 consecutive isolates from urine samples recovered from July to September 2012.
as §1, §2
To avoid potential self-selection bias in the analysis of these smaller groups, the susceptibility classification for the isolates in each subset was done after excluding the susceptibility profiles of that particular subset, i.e., by using the clonotype susceptibility profiles of the remaining isolates from common clonotypes (Table 4).

[4] = Harborview Med. Center, Seattle

Molecule	Resistance among allowed isolates (actual prevalence of resistance) [1]	Resistance among rejected isolates [1]	Observed Resistance rate [2]	also measured
CC1(C)S[C@@H]2[C@H](NC(=O)[C@H](N)c3ccccc3)C(=O)N2[C@H]1C(=O)O [AMP, ampicillin]	21.9%	60.1%	51.6%	
CO/N=C(\C(=O)N[C@@H]1C(=O)N2C(C(=O)O)=C(CSc3nc(=O)c(=O)[nH]n3C)CS[C@H]12)c1csc(N)n1 [CTR, ceftriaxone]	4.2%	31.1%	5.38%	
Cc1nnc(SCC2=C(C(=O)O)N3C(=O)[C@@H](NC(=O)Cn4cnnn4)[C@H]3SC2)s1 [CZ, cefazolin]	10.7%	32.0%	19.7%	
O=C1CN(/N=C/c2ccc([N+](=O)[O-])o2)C(=O)N1 [NIT, nitrofurantoin]	5.5%	27.4%	6.79%	
CN(C)[C@@H]1C(O)=C(C(N)=O)C(=O)[C@@]2(O)C(O)=C3C(=O)c4c(O)cccc4[C@@](C)(O)[C@H]3C[C@@H]12 [TET, tetracycline]	11.5%	48.0%	29.5%	
amoxicillin-clavulanate [A/K]			25.5%	
ampicillin-sulbactam [A/S]	13.0%	37.9%	29.4%	
gentamicin [GM]	4.3%	31.4%	8.92%	
piperacillin-tazobactam [PTZ]	3.8%	13.3%	3.96%	
trimethoprim-sulfamethoxazole [T/S]			26.9%	Total Resistant ([2]; Children's Hospital, Seattle): 34.2%; Total Resistant ([2]; Group Health Co-op, Seattle): 20.1%; Total Resistant [2, 4]: 30.4%; Total Resistant ([2]; Univ. of Münster, Münster, 161 urine isolates): 32.6%; Total Resistant ([2]; Univ. of Washington, Seattle): 33.3%; Total Resistant ([2]; VA Med. Center, Minneapolis): 34.0%; Resistance among allowed isolates ([3]; Children's Hospital, Seattle): 14.2%; Resistance among allowed isolates ([3]; Group Health Co-op, Seattle): 5.0%; Resistance among rejected isolates ([3]; Group Health Co-op, Seattle): 36.2%; Resistance among allowed isolates [3, 4]: 7.4%; Resistance among allowed isolates ([3]; Univ. of Münster, Münster): 14.3%; Resistance among allowed isolates ([3]; Univ. of Washington, Seattle): 11.4%; Resistance among rejected isolates ([3]; Univ. of Washington, Seattle): 62.6%; Resistance among allowed isolates ([3]; VA Med. Center, Minneapolis): 17.0%; Actual prevalence of resistance among allowed isolates, mean ([3]; mean over the laboratories): 12.1%
